# Data from patent publication US8129340B2, “Inhibitors of protein phosphatase 1, GADD34 and protein phosphatase 1/GADD34 complex, preparation and uses thereof” (Institut Gustave Roussy, priority 2006, dated 2012).
# Peptide text beside a SMILES is read from it. * marks the point of attachment. Cbz = O=C(OCc1ccccc1)*; CH2F = FC*
# Columns and labels:
# CT26 tumour cells [1] = assay: Local immune response: tumour cells injected into foot pad, IFN-γ secretion by draining popliteal lymph node cells (ELISA); format: in vivo, Balb/c mice; conditions: cells injected into the foot pad
# Description: FIG. 4B: Priming of T cell responses depending on CRT. CT26 tumour cells were left untransfected or transfected with the indicated siRNAs, then treated with medium alone, mitomycin C or mitoxantrone and injected into the right food pad of Balb/c mice. Five days later, mononuclear cells from the draining popliteal lymph nodes were challenged with freeze-thawed CT26 cells, and IFN-γ secretion was assessed at 72 hrs.
# FIG. 4C: Exogenous supply of CRT enhances the immunogenicity of CRT-negative dying cells. CT26 cells lacking CRT expression after depletion of CRT with a siRNA and mitoxantrone treatment or after mitomycin treatment were coated with rCRT (inserts) and then injected in the food pad, followed by assessment of the IFN-γ secretion by cells from the draining lymph nodes as in FIG. 4B.
# (§1) Tumours were evaluated weekly, using a caliper.
# CT26 colon cancer cells = assay: In vivo anti-cancer vaccination: treated tumour cells in one flank and live tumour cells in opposite flank simultaneously; parameters: species or system BALB/c mice
# Description: FIG. 4A: In vivo anti-cancer vaccination depends on CRT. CT26 colon cancer cells were transfected with the indicated siRNAs, then treated with rCRT and/or mitoxantrone (as in FIG. 3D) and the anti-tumour response was measured by simultaneously challenging BALB/c mice with mitoxantrone treated tumour cells in one flank and untreated live tumour cells in the opposite flank.
# FIG. 4D: CRT-mediated amelioration of the immune response against etoposide-treated tumour cells. CT26 cells were treated for 24 h with etoposide (or PBS) and rCRT was optionally absorbed to the cell surface (inserts), followed by simultaneous injection of the etoposide ±rCRT-treated tumour cells and live tumour cells in opposite flanks and monitoring of tumour growth.
# as §1
# CT26 cells = assay: Phagocytosis of CT26 tumour cells by dendritic cells (FACS, double positive cells); format: cell-based, BALB/c mice; conditions: cells transfected with siRNA
# Description: FIG. 3A, FIG. 3B: Correlation between tumour cell phagocytosis and CRT exposure. Tumour cells labelled with Cell Tracker Green were cultured with CD11c-expressing DC and the percentage of DC taking up tumour cells was determined (A) and correlated with the CRT surface exposure (B), measured as in FIG. 2E.
# Mitoxantrone-treated or control cells were incubated with a blocking chicken anti-CRT antibody, followed by detection of phagocytosis by CD.
# Cells were transfected with the indicated siRNAs and optionally treated with rCRT, followed by immunoblot (FIG. 3D) detection of surface CRT (FIG. 3E) and phagocytosis by DC (FIG. 3F). Results are triplicates (X±SD) and representative of three independent experiments. * denotes statistically significant differences using the Student t′ test at p<0.001.
# BM cells were flushed from the tibias and femurs of BALB/c mice with culture medium composed of RPMI 1640 medium (Invitrogen Life Technologies) supplemented with 10% heat-inactivated FBS (Invitrogen), sodium pyruvate, 50 μM 2-ME (Sigma), 10 mM HEPES (pH 7.4), and penicillin/streptomycin (Invitrogen). After one centrifugation, BM cells were resuspended in Tris-ammonium chloride for 2 min to lyse RBC. After one more centrifugation, BM cells (1×10^6 cells/ml) were cultured in medium supplemented with 100 ng/ml recombinant mouse FLT3 ligand (R&D systems) in 6-well plates (Costar Corning). After 7 days, the non-adherent and loosely adherent cells were harvested with Versene, washed and transferred in 12-well plates (1.5×10^6 cells/plate) for cocultures with tumour cells.
# In 12-well plates, […] adherent CT26 cells were labelled with Celltracker Green (Calbiochem) and then incubated with drugs. In some experiments viable CT26 were coated with 2 μg/10^6 cells of chicken anti-CRT antibody (ABR affinity bioreagents) or an isotype control for 30 min prior to washing and feeding to dendritic cells Cs. Alternatively CT26 cells were coated with 2 μg/10^6 cells of rCRT on ice for 30 min and washed twice prior to addition to dendritic cells. Cells were then harvested, washed three times with medium supplemented with FBS and cocultured with immature DC for 2 hours at a ratio of 1:1 and 1:5. At the end of the incubation, cells were harvested with versene, pooled with non-adherent cells present in the supernatant, washed and stained with CD11c-FITC antibody. Phagocytosis was assessed by FACS analysis of double positive cells. Phagocytic indexes refer to the ratio between values obtained at 4° C. and values obtained at 37° C. of co-incubation between DC and tumour cells.
# CT26 tumour cells [2] = assay: Anti-tumour vaccination: dying treated CT26 cells injected in one flank, later challenge with live tumour cells; format: in vivo, BALB/c mice; conditions: for induction of immunogenic cell death by the inhibitor alone: without cell death inducer
# cell surface CRT = assay: Fluorescence detection of cell surface CRT on CT26 cells (cytofluorometry); format: cell-based, murine; conditions: agent alone; for induction of ecto-CRT and/or ecto-Erp57: tumour cells
# Description: FIG. 1SA, FIG. 1SB: Kinetics of CRT exposure. CT26 cells were treated with mitoxantrone for the indicated period, followed by immunofluorescence staining with a CRT-specific antibody and cytofluorometric analysis.
# FIG. 2E: Correlation between CRT exposure and immunogenicity. The surface exposure of CRT was determined by immunofluorescence cytometry while gating on viable (propidium iodine-negative) cells (inserts) and was correlated with the immunogenicity of cell death (as determined in FIG. 1). CO, control; Tg, thapsigargin; Tu, tunicamycin.
# FIG. 5E: Kinetics of CRT exposure determined by FACS analysis after incubation of cells with the indicated agents.
# FIG. 5F-FIG. 5G: PP1/GADD34 inhibitors render cell immunogenic via CRT. Tumour cells were first transfected with a control siRNA or a CRT-specific siRNA and then treated in vitro with etoposide, alone or in combination with PP1/GADD34 inhibitors. […] The results represent the % of tumour free mice (comprising a total of 12 to 18 mice per group).
# CT26 cells (on a glass slide or in 12-well plates) were first washed with FACS buffer (1×PBS, 5% fetus bovine serum, and 0.1% sodium azide) and then incubated with rabbit anti-mouse CRT antibody (1:100, Stressgen) in FACS buffer at 4° C. for 30 min. Cells reacted with anti-rabbit IgG (H+L) Alexa fluor 488-conjugates (1:500) in FACS buffer at 4° C. for 30 min. After washing three times with FACS buffer, surface CRT was detected by cytofluorometric analysis on a FACS Vantage. In some experiments, cells were fixed with 4% paraformaldehyde, counterstained with Hoechst (2 μM; Sigma), followed by fluorescence microscopic assessment with a Leica IRE2 microscope equipped with a DC300F camera.
# CT26 tumours [3] = assay: Intratumoural treatment of established CT26 tumours in immunodeficient mice; format: in vivo, athymic nu/nu Balb/c mice
# CT26 tumours [4] = assay: Intratumoural treatment of established CT26 tumours in immunocompetent mice; format: in vivo, BALB/c mice (wild type)
# CRT [5] = assay: CRT exposure on tumour cell lines of human origin (HeLa, A549, HCT116); format: cell-based
# CRT [6] = assay: CRT exposure on tumour cell lines of murine origin (MCA205, B16F10, J558); format: cell-based
# calreticulin [7] = assay: Calreticulin exposure by immunofluorescence staining and flow cytometry, CT26 cells (peptide test); format: cell-based, murine; conditions: 2 hours
# Description: (§2) HCT116 cells (FIG. 7A) or CT26 cells (FIG. 7B) were cultured in complete mediums supplemented with 10% fetal calf serum alone or in the presence of the control peptide (VKKKKIKREIKI-lkaravafsekv) (SEQ ID NO: 17) or the PP1/GADD34 inhibitory peptide (VKKKKIKREIKI-lkarkvrfsekv, SEQ ID NO: 4. denominated PP1 peptide) for 2 hours. Cells were washed twice with PBS and fixed in PFA (4% w/v) for 5 min. Cells were stained with an antibody against calreticulin (pAb from Abeam, ab2907) at 1:200 dilution or isotype control, in staining buffer (PBS, 1% FCS) for 30 min on ice, followed by washing. An anti-rabbit Alexa fluor 488 immunoglobulin conjugate (Molecular Probes-Invitrogen) diluted at 1:500 was added for an additional 30 min on ice before washing and analysed by flow cytometry (FACScan, Becton Dickinson). Propidium Iodide (50 μg/ml, Becton Dickinson) was added to the samples to label and exclude permeabilized (dead) cells.
# calreticulin [8] = assay: Calreticulin exposure by immunofluorescence staining and flow cytometry, HCT116 cells; format: cell-based, human; conditions: 2 hours
# Description: as §2
# [9] = dying CT26 cells treated with agent injected into one flank, live tumour cells in opposite flank 8 days later
compound,measurement,setting,value
5′-rCrCrGrCUrGrGrGUrCrGrArAUrCrRrArATT-3′ [CRT-specific siRNA],immunogenicity of mitoxantrone-treated CT26 cells (interferon-γ production by T cells from popliteal lymph node),CT26 tumour cells [1],compromised the immunogenicity of mitoxantrone-treated CT26 cells
same,immunogenicity of mitoxantrone-treated CT26 cells (efficacy of anti-tumour vaccination),CT26 colon cancer cells; cells injected into the flank of Balb/c mice,compromised the immunogenicity of mitoxantrone-treated CT26 cells
same,phagocytosis of anthracyclin-treated tumour cells by DC after siRNA knockdown of CRT,CT26 cells,suppressed the phagocytosis of anthracyclin-treated tumour cells
"CCCCCCCCCCCCC/C=C/[C@@H](O)[C@H](CO)NC(C)=O [C2 ceramide, C2-ceramide]","immunogenicity of cell death (protection against tumour growth, anti-tumour vaccination)",CT26 tumour cells [2]; [9],failed to induce immunogenic apoptosis
CCOc1ccc(-c2nc3ccc(-c4nc5ccc(N6CCN(C)CC6)cc5[nH]4)cc3[nH]2)cc1 [Hoechst 33342],"immunogenicity of cell death (protection against tumour growth, anti-tumour vaccination)",CT26 tumour cells [2]; [9],failed to induce immunogenic apoptosis
COC(=O)C[C@H](NC(=O)[C@H](C)NC(=O)[C@@H](NC(=O)OCc1ccccc1)C(C)C)C(=O)CF [Z-VAD-fmk] (Cbz-Val-Ala-Asp(OMe)-CH2F),effect on immunogenicity of doxorubicin-elicited cell death,CT26 tumour cells [2]; combined with doxorubicin,reduces the immunogenicity of doxorubicin-elicited cell death
"C[C@H]1CCC/C=C/[C@@H]2C[C@H](O)C[C@H]2[C@H](O)/C=C/C(=O)O1 [brefeldin, brefeldin A]","immunogenicity of cell death (protection against tumour growth, anti-tumour vaccination)",CT26 tumour cells [2]; [9],failed to induce immunogenic apoptosis
COC[C@@H]([C@H](O)[C@H](O)C(=O)NCC[C@H](C)c1nc(/C=C/C[C@@H]2O[C@]3(C[C@@H](O)[C@@H]2C)O[C@H]([C@H](C[C@H](O)[C@H](C)[C@H](O)[C@H](C)/C=C(C)/C(C)=C/C=C/C(C)=C\C#N)OC)[C@H](OP(=O)(O)O)C3(C)C)co1)N(C)C [calyculin A],induction of CRT exposure at the cell surface,cell surface CRT,efficiently induced
same,induction of immunogenic cell death by the inhibitor alone,CT26 tumour cells [2],not sufficient to induce immunogenic cell death
CC[C@@]1(O)C(=O)OCc2c1cc1n(c2=O)Cc2cc3ccccc3nc2-1 [camptothecin],"immunogenicity of cell death (protection against tumour growth, anti-tumour vaccination)",CT26 tumour cells [2]; [9],failed to induce immunogenic apoptosis
COc1cc([C@@H]2c3cc4c(cc3[C@@H](O[C@@H]3O[C@@H]5CO[C@@H](C)O[C@H]5[C@H](O)[C@H]3O)[C@H]3COC(=O)[C@H]23)OCO4)cc(OC)c1O [etoposide],induction of ecto-CRT and/or ecto-Erp57,cell surface CRT,fail to induce ecto-CRT and/or ecto-Erp57
same,"therapeutic effect of single agent on established tumours, nu/nu mice","CT26 tumours [3]; mouse, in vivo",no major therapeutic effect
same,immunogenicity of sham-coated etoposide-treated cells,CT26 colon cancer cells; sham-coated cells treated with etoposide,poorly immunogenic
same,"therapeutic effect of single agent on established tumours, immunocompetent mice","CT26 tumours [4]; mouse, in vivo",no major therapeutic effect
same,"immunogenicity of cell death (protection against tumour growth, anti-tumour vaccination)",CT26 tumour cells [2]; [9],failed to induce immunogenic apoptosis
CC(=O)[C@]1(O)Cc2c(O)c3c(c(O)c2[C@@H](O[C@H]2C[C@H](N)[C@H](O)[C@H](C)O2)C1)C(=O)c1ccccc1C3=O [idarubicin],"immunogenicity of cell death (protection against tumour growth, anti-tumour vaccination)",CT26 tumour cells [2]; [9],elicited immunogenic cell death
CO[C@@]12[C@H](COC(N)=O)C3=C(C(=O)C(C)=C(N)C3=O)N1C[C@@H]1N[C@@H]12 [mitomycin C],induction of CRT exposure at the cell surface,cell surface CRT,cannot promote CRT exposure on tumor cell surface
same,induction of ecto-CRT and/or ecto-Erp57,cell surface CRT,fail to induce ecto-CRT and/or ecto-Erp57
same,"therapeutic effect of single agent on established tumours, nu/nu mice","CT26 tumours [3]; mouse, in vivo",no major therapeutic effect
same,"therapeutic effect of single agent on established tumours, immunocompetent mice","CT26 tumours [4]; mouse, in vivo",no major therapeutic effect
same,"immunogenicity of cell death (protection against tumour growth, anti-tumour vaccination)","CT26 tumour cells [2]; mouse, in vivo",failed to induce immunogenic apoptosis
O=C(/C=C/c1ccccc1)NC(NC(=S)Nc1cccc2cccnc12)C(Cl)(Cl)Cl (centres unmarked) [salubrinal],induction of CRT exposure at the cell surface,cell surface CRT,efficiently induced
same,"therapeutic effect of single agent on established tumours, nu/nu mice",CT26 tumours [3]; single intratumoural injection,no major therapeutic effect
same,CRT exposure on human tumour cell lines,CRT [5],induced CRT exposure
same,"therapeutic effect combined with a cell death inducer (etoposide or mitomycin C), immunocompetent mice",CT26 tumours [4]; intratumoural injection with etoposide or mitomycin C,stable disease or complete tumour regression
same,"therapeutic effect of single agent on established tumours, immunocompetent mice","CT26 tumours [4]; single intratumoural injection, 14-day-old CT26 tumours",no major therapeutic effect
same,induction of immunogenic cell death by the inhibitor alone,CT26 tumour cells [2],not sufficient to induce immunogenic cell death
same,CRT exposure on murine tumour cell lines,CRT [6],induced CRT exposure
C/C=C(/C)C(=O)O[C@H]1C(C)=C2[C@H]([C@@H]1OC(=O)CCCCCCC)[C@@](C)(OC(C)=O)C[C@H](OC(=O)CCC)[C@@]1(O)[C@H]2OC(=O)[C@@]1(C)O [thapsigargin],"immunogenicity of cell death (protection against tumour growth, anti-tumour vaccination)",CT26 tumour cells [2]; [9],failed to induce immunogenic apoptosis
VKKKKIKREIKI-lkaravafsekv (VKKKKIKREIKILKARAVAFSEKV; Artificial sequence including a fragment of GADD34 and a translocation motif) [mutant control peptide],"exposure of calreticulin, CT26 cells",calreticulin [7],did not induce calreticulin exposure
same,"exposure of calreticulin, HCT116 cells",calreticulin [8],did not induce calreticulin exposure
tunicamycin,"immunogenicity of cell death (protection against tumour growth, anti-tumour vaccination)",CT26 tumour cells [2]; [9],failed to induce immunogenic apoptosis
